This note sets out measurements from patent US20260070917A1, “CYCLIN DEPENDENT KINASE DEGRADERS AND METHODS OF USE THEREOF” (Differentiated Therapeutics Inc, priority 2023, published 2026).

Where two headings read alike, the source gives them in different places.

Holding throughout (assay type): cell-based
The target in one experiment is T1, CCNE1 (Homo sapiens, UniProt P24864).
T1 construct: host or cells: HEK293-CCNE1-Hibit
Nature of the experiment: HiBit Assay Protocol for CCNE1 (HIBIT protein quantification, degradation). The following applies: HEK293-CCNE1-Hibit cells, compound treatment for 6 hours. A digest of the protocol:
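HEK293 cells expressing HiBiT-tagged CCNE1 were seeded overnight, then treated 6 h with a 3-fold, 10-point compound dilution series. HiBiT levels were read by lytic LgBiT luminescence and normalised to DMSO-only (high) and medium-only (low) controls. DC50 was derived by curve fitting.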

A further experiment addresses T2, CDK9 (Homo sapiens, UniProt P50750).
T2 construct: host or cells: HEK293-CDK9-Hibit
Nature of the experiment: HiBit Assay Protocol for CDK9 (HIBIT protein quantification, degradation). The following applies: HEK293-CDK9-Hibit cells, compound treatment for 6 hours; for Dmax: read-out: CDK9 HIBIT Protein Quantification Maximum. In outline: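 HEK293 cells carrying HiBiT-tagged CDK9 treated 6 h with compounds in a 3-fold, 10-point dilution series. CDK9 level read by lytic Nano-Glo HiBiT/LgBiT luminescence and normalized to 0.1% DMSO (high) and medium-only (low) controls. DC50 from curve fitting.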

The next experiment deals with T3, CDK2 (Homo sapiens, UniProt P24941).
T3 construct: host or cells: HEK293-CDK2-Hibit
The experiment is described as follows: HiBit Assay Protocol for CDK2 (HIBIT protein quantification, degradation). Conditions: HEK293-CDK2-Hibit cells, compound treatment for 6 hours; for DC50: ABS DC50. In outline:
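HEK293 cells expressing HiBiT-tagged CDK2 were seeded overnight, then treated 6 h with a 3-fold, 10-point compound dilution series. CDK2 levels were read as luminescence after lytic HiBiT/LgBiT detection, normalised to DMSO-only and medium-only controls, and DC50 derived by curve fitting.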

T1 sequence (P24864 whole entry): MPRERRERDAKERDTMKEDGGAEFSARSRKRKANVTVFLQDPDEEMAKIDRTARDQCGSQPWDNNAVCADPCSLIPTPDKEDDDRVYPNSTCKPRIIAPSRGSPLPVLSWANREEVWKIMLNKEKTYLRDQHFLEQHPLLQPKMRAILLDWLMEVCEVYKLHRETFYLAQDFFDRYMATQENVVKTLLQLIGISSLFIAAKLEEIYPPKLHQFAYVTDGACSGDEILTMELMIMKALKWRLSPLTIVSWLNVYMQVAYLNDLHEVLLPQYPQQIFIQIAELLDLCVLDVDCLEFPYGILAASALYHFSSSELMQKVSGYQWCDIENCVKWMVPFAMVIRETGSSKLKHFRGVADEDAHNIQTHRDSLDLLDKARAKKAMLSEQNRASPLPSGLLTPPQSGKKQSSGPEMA
T2 sequence (P50750 whole entry): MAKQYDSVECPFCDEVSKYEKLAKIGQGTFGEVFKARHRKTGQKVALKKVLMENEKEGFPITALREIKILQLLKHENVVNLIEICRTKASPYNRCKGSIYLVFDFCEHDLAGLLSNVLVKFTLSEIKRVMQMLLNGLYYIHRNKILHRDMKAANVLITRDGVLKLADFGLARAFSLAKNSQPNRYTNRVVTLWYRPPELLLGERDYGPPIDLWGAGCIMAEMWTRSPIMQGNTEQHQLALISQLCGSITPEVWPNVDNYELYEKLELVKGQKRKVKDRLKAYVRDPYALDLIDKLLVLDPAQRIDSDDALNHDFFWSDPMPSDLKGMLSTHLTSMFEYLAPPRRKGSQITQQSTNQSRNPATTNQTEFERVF

As for `CC1CCCC1N1C(=O)C2(CC2)c2cnc(NC3CCN(S(=O)(=O)N4CCCC45CCN(C(=O)CCCCc4ccc6c(c4)n(C)c(=O)n6C4CCC(=O)NC4=O)C5)CC3)nc21` (stereo not shown) [Compound 104], the “CCNE1 HIBIT Protein Quantification Maximum” value on CCNE1 came to 6%. The Dmax at CDK9 (6 h) was determined as 11%. Also, the “CDK2 HIBIT Protein Quantification Maximum” value on CDK2 was 25%.

On to `CC1CCCC1N1C(=O)C2(CC2)c2cnc(NC3CCN(S(=O)(=O)N4CC5(CCCN(c6cccc(-c7cccc8c7n(C)c(=O)n8C7CCC(=O)NC7=O)c6)C5)C4)CC3)nc21` (stereo not shown) [Compound 136, 3-{3-Methyl-4-[3-(2-{4-[7′-(2-methylcyclopentyl)-6′-oxospiro[cyclopropane-1,5′-pyrrolo[2,3-d]pyrimidin]-2′-ylamino]piperidin-1-ylsulfonyl}-2,6-diazaspiro[3.5]nonan-6-yl)phenyl]-2-oxo-1,3-benzodiazol-1-yl}piperidine-2,6-dione], for which the “CCNE1 HIBIT Protein Quantification Maximum” value on CCNE1 stood at 7%. Further, the Dmax on CDK9 worked out at 14%. Also, on CDK2, the “CDK2 HIBIT Protein Quantification Maximum” value came to 61% and the DC50 was found to be 131 nM.

In the case of `CC1CCCC1N1C(=O)C2(CC2)c2cnc(NC3CCN(S(=O)(=O)N4CC(N(C)C(=O)CCCCc5cccc6c5n(C)c(=O)n6C5CCC(=O)NC5=O)C4)CC3)nc21` (stereo not shown) [Compound 91], the “CCNE1 HIBIT Protein Quantification Maximum” value on CCNE1 is 25%. Also, the Dmax on CDK9 (6 h) was 37%. In addition, on CDK2, the “CDK2 HIBIT Protein Quantification Maximum” value came to 64% and it took 6 nM to reach half-maximal degradation (DC50).

Take `CC1CCCC1N1C(=O)C2(CC2)c2cnc(NC3CCN(S(=O)(=O)N4CC5(CCN(C(=O)CCCc6cccc7c6n(C)c(=O)n7C6CCC(=O)NC6=O)CC5)C4)CC3)nc21` (stereo not shown) [Compound 30]: at CCNE1, the “CCNE1 HIBIT Protein Quantification Maximum” value is 37%. Further, the Dmax on CDK9 (6 h) came out at 75%. The values for the DC50 on CDK9 (ABS DC50) and on CDK2 were 17.6 nM and 11 nM, respectively. In addition, at CDK2, the “CDK2 HIBIT Protein Quantification Maximum” value is reported as 72%.

On to `CC1CCCC1N1C(=O)C2(CC2)c2cnc(NC3CCN(S(=O)(=O)N4CC5(CCCN(C(=O)CCCCCc6cccc7c6n(C)c(=O)n7C6CCC(=O)NC6=O)C5)C4)CC3)nc21` (stereo not shown) [Compound 39], for which the “CCNE1 HIBIT Protein Quantification Maximum” value on CCNE1 is 9%. Further, on CDK9 (6 h), the Dmax stood at 6%. In addition, at CDK2, the “CDK2 HIBIT Protein Quantification Maximum” value is listed as 54% and half-maximal degradation (DC50) was put at 7 nM.

`CC1CCCC1N1C(=O)C2(CC2)c2cnc(NC3CCN(S(=O)(=O)N4CCCN(C(=O)CCCCCc5cccc6c5n(C)c(=O)n6C5CCC(=O)NC5=O)CC4)CC3)nc21` (stereo not shown) [Compound 43]: the “CCNE1 HIBIT Protein Quantification Maximum” value on CCNE1 is listed as 62%. Further, the Dmax at CDK9 (6 h) was 32%. Further, at CDK2, the “CDK2 HIBIT Protein Quantification Maximum” value is reported as 60% and half-maximal degradation (DC50) was put at 16 nM.

With `Cc1ccc(S(=O)(=O)N2CCC(Nc3ncc4c(n3)N([C@@H]3CCC[C@@H](O)C3)C(=O)C43CC3)CC2)cc1CN1CCC(c2ccc3c(N4CCC(=O)NC4=O)nn(C)c3c2)CC1` [Compound 168], the “CCNE1 HIBIT Protein Quantification Maximum” value on CCNE1 is 40%. In addition, the Dmax at CDK9 (6 h) was 26%. Moreover, at CDK2, the “CDK2 HIBIT Protein Quantification Maximum” value is reported as 71% and the DC50 was determined as 2.91 nM.

For `Cn1nc(N2CCC(=O)NC2=O)c2ccc(C3CCN(Cc4cccc(S(=O)(=O)N5CCC(Nc6ncc7c(n6)N([C@@H]6CCC[C@@H](O)C6)C(=O)C76CC6)CC5)n4)CC3)cc21` [Compound 166, 1-[6-(1-{[6-(4-{7′-[(1R,3R)-3-Hydroxycyclohexyl]-6′-oxospiro[cyclopropane-1,5′-pyrrolo[2,3-d]pyrimidin]-2′-ylamino}piperidin-1-ylsulfonyl)pyridin-2-yl]methyl}piperidin-4-yl)-1-methylindazol-3-yl]-1,3-diazinane-2,4-dione], the “CCNE1 HIBIT Protein Quantification Maximum” value at CCNE1 worked out at 44%. For the same molecule, the Dmax on CDK9 (6 h) is 18%. Further, at CDK2, the “CDK2 HIBIT Protein Quantification Maximum” value amounted to 64% and the DC50 was determined as 21.3 nM.

Regarding `CC1CCCC1N1C(=O)C2(CC2)c2cnc(NC3CCN(S(=O)(=O)N4CCN(C(=O)CCCCCc5ccc6c(c5)n(C)c(=O)n6C5CCC(=O)NC5=O)CC4)CC3)nc21` (stereo not shown) [Compound 77], the “CCNE1 HIBIT Protein Quantification Maximum” value on CCNE1 is 25%. Besides, the Dmax at CDK9 (6 h) was determined as 40%. Also, at CDK2, the “CDK2 HIBIT Protein Quantification Maximum” value was determined as 46%.

For `CC1CCCC1N1C(=O)C2(CC2)c2cnc(NC3CCN(S(=O)(=O)C4CCN(C(=O)CCCCCCCCCc5cccc6c5n(C)c(=O)n6C5CCC(=O)NC5=O)C4)CC3)nc21` (stereo not shown) [Compound 53], the “CCNE1 HIBIT Protein Quantification Maximum” value on CCNE1 was determined as 46%. In addition, on CDK9 (6 h), the Dmax was 36%. Also, at CDK2, the “CDK2 HIBIT Protein Quantification Maximum” value amounted to 62% and the DC50 is 10 nM.

Regarding `C[C@H](c1cccc(S(=O)(=O)N2CC[C@H](Nc3ncc4c(n3)N([C@@H]3CCC[C@@H](O)C3)C(=O)C43CC3)[C@H](F)C2)c1)N1CCN(c2ccc3c(N4CCC(=O)NC4=O)nn(C)c3c2)[C@@H](C)C1` [Compound 207], at CCNE1, the “CCNE1 HIBIT Protein Quantification Maximum” value is on record as 38%. For the same molecule, at CDK9 (6 h), the Dmax turned out to be 23%. In addition, at CDK2, the “CDK2 HIBIT Protein Quantification Maximum” value came to 90% and half-maximal degradation (DC50) was put at 3.5 nM.

Consider `CC1CCCC1N1C(=O)C2(CC2)c2cnc(NC3CCN(S(=O)(=O)N4CC5CN(C(=O)CCCCCc6ccc7c(c6)n(C)c(=O)n7C6CCC(=O)NC6=O)CC54)CC3)nc21` (stereo not shown) [Compound 79], for which the “CCNE1 HIBIT Protein Quantification Maximum” value at CCNE1 was determined as 16%. Further, at CDK9 (6 h), the Dmax worked out at 21%. Further, the “CDK2 HIBIT Protein Quantification Maximum” value at CDK2 was determined as 6%.

For `CC1CCCC1N1C(=O)C2(CC2)c2cnc(NC3CCN(S(=O)(=O)N4CC5(CCCN(CCOc6cccc7c6n(C)c(=O)n7C6CCC(=O)NC6=O)C5)C4)CC3)nc21` (stereo not shown) [Compound 138, 3-{3-Methyl-4-[2-(2-{4-[7′-(2-methylcyclopentyl)-6′-oxospiro[cyclopropane-1,5′-pyrrolo[2,3-d]pyrimidin]-2′-ylamino]piperidin-1-ylsulfonyl}-2,6-diazaspiro[3.5]nonan-6-yl)ethoxy]-2-oxo-1,3-benzodiazol-1-yl}piperidine-2,6-dione], the “CCNE1 HIBIT Protein Quantification Maximum” value at CCNE1 was 14%. Besides, the Dmax at CDK9 (6 h) came to 3%. Also, at CDK2, the “CDK2 HIBIT Protein Quantification Maximum” value is reported as 45%.

As for `CC1CCCC1N1C(=O)C2(CC2)c2cnc(NC3CCN(S(=O)(=O)N4CC5(CCCN(C(=O)CCCCc6ccc7c(c6)n(C)c(=O)n7C6CCC(=O)NC6=O)C5)C4)CC3)nc21` (stereo not shown) [Compound 107], the “CCNE1 HIBIT Protein Quantification Maximum” value on CCNE1 came to 25%. The Dmax on CDK9 (6 h) was 22%. Besides, the “CDK2 HIBIT Protein Quantification Maximum” value on CDK2 is given as 28%.

With `CC1CCCC1N1C(=O)C2(CC2)c2cnc(NC3CCN(S(=O)(=O)C4CCCN(C(=O)CCCCc5cccc6c5n(C)c(=O)n6C5CCC(=O)NC5=O)C4)CC3)nc21` (stereo not shown) [Compound 101], on CCNE1, the “CCNE1 HIBIT Protein Quantification Maximum” value stood at 47%. Further, the Dmax at CDK9 (6 h) was found to be 23%. Moreover, at CDK2, the “CDK2 HIBIT Protein Quantification Maximum” value came out at 38%.

For `CC1CCCC1N1C(=O)C2(CC2)c2cnc(NC3CCN(S(=O)(=O)N4CCC5(CCCN5C(=O)CCCc5ccc6c(c5)n(C)c(=O)n6C5CCC(=O)NC5=O)C4)CC3)nc21` (stereo not shown) [Compound 64], the “CCNE1 HIBIT Protein Quantification Maximum” value on CCNE1 is recorded as 18%. In addition, on CDK9 (6 h), the Dmax worked out at 17%. The “CDK2 HIBIT Protein Quantification Maximum” value on CDK2 was determined as 29%.

As for `CC1CCCC1N1C(=O)C2(CC2)c2cnc(NC3CCN(S(=O)(=O)C4CCN(C(=O)CCCCCCCCCc5ccc6c(c5)n(C)c(=O)n6C5CCC(=O)NC5=O)C4)CC3)nc21` (stereo not shown) [Compound 90], the “CCNE1 HIBIT Protein Quantification Maximum” value at CCNE1 is 34%. Also, the Dmax at CDK9 (6 h) is 45%. Besides, on CDK2, the “CDK2 HIBIT Protein Quantification Maximum” value was 67% and it took 5 nM to reach half-maximal degradation (DC50).

Consider `CC1CCCC1N1C(=O)C2(CC2)c2cnc(NC3CCN(S(=O)(=O)N4CC5(CCCCN5C(=O)CCCCCc5cccc6c5n(C)c(=O)n6C5CCC(=O)NC5=O)C4)CC3)nc21` (stereo not shown) [Compound 37], for which the “CCNE1 HIBIT Protein Quantification Maximum” value on CCNE1 amounted to 30%. Moreover, the Dmax at CDK9 (6 h) turned out to be 0%. On CDK2, the “CDK2 HIBIT Protein Quantification Maximum” value was determined as 40%.

On to `Cn1nc(N2CCC(=O)NC2=O)c2ccc(C3CCN(Cc4cccc(S(=O)(=O)N5CCC(Nc6ncc7c(n6)N([C@@H]6CCC[C@@H](O)C6)C(=O)C76CC6)CC5)c4)CC3)c(F)c21` [Compound 175, 1-[7-fluoro-6-(1-{[3-(4-{7′-[(1R,3R)-3-Hydroxycyclohexyl]-6′-oxospiro[cyclopropane-1,5′-pyrrolo[2,3-d]pyrimidin]-2′-ylamino}piperidin-1-ylsulfonyl)phenyl]methyl}piperidin-4-yl)-1-methylindazol-3-yl]-1,3-diazinane-2,4-dione], for which, at CCNE1, the “CCNE1 HIBIT Protein Quantification Maximum” value came to 44%. Further, at CDK9 (6 h), the Dmax came out at 8%. Also, on CDK2, the “CDK2 HIBIT Protein Quantification Maximum” value was 78% and half-maximal degradation (DC50) was put at 4.19 nM.

Consider `CC1CCCC1N1C(=O)C2(CC2)c2cnc(NC3CCN(S(=O)(=O)N4CCC5(CCN(C(=O)CCc6cccc7c6n(C)c(=O)n7C6CCC(=O)NC6=O)C5)C4)CC3)nc21` (stereo not shown) [Compound 21], for which the “CCNE1 HIBIT Protein Quantification Maximum” value at CCNE1 is on record as 28%. Also, the Dmax at CDK9 (6 h) came out at 28%. On CDK2, the “CDK2 HIBIT Protein Quantification Maximum” value worked out at 54% and it took 41 nM to reach half-maximal degradation (DC50).
